Laboratory results taken from patent US20040043959A1, “Combination therapies for treating methylthioadenosine phosphorylase deficient cells” (priority 2002, published 2004).

Target: T1, Human MTAP (Homo sapiens, UniProt Q13126)
T1 construct: six-histidine tag (His6) (N); made in house; host or cells: E. coli BL21 DE3
T1 sequence (Q13126 1-283): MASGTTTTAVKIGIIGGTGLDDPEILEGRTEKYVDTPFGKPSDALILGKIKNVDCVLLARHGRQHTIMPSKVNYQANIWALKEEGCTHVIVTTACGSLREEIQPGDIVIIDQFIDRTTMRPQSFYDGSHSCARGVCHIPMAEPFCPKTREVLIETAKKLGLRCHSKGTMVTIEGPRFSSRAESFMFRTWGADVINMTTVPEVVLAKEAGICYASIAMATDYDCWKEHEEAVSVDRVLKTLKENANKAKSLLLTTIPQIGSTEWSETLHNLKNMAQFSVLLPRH
Assay: MTAP substrate assay, coupled spectrophotometric (adenine, xanthine oxidase)
Assay type: biochemical
Settings: 2 nM MTAP; for activity at 50 µM: 10 min, compound 50 uM, relative to MTA at 50 uM, read-out: MT-A—50: initial velocity as a percentage of the initial velocity with MTA as substrate; for MT-A—10: initial velocity as a percentage of the initial velocity with MTA as substrate: compound 10 uM, relative to MTA at 10 uM
How it was run: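 Detection was xanthine oxidase-coupled (0.8 units/ml), reading adenine-derived absorbance at 305 nm over 10 min in potassium phosphate/DTT buffer at 37° C, with N-His6 enzyme purified from E. coli.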

SMILES	activity at 50 µM [%]	MT-A—10: initial velocity as a percentage of the initial velocity with MTA as substrate [%]
COc1ccc2[nH]c(SC[C@H]3O[C@@H](n4cnc5c(N)ncnc54)[C@H](O)[C@@H]3O)nc2c1 [2(G)(118), (2R, 3R, 4S, 5S)-2-(6-amino-9H-purin-9-yl)-5-{[(5-methoxy-1H-benzimidazol-2-yl)thio]methyl}tetrahydrofuran-3,4-diol]	2.5	2.5
Nc1ncnc2c1ncn2[C@@H]1O[C@H](CSc2nc3ccccc3[nH]2)[C@@H](O)[C@H]1O [2(G)(119), (2R, 3R, 4S, 5S)-2-(6-amino-9H-purin-9-yl)-5-[(1H-benzimidazol-2-ylthio)methyl)tetrahydro-furan-3,4-diol]	26	12
Cn1ccnc1SC[C@H]1O[C@@H](n2cnc3c(N)ncnc32)[C@H](O)[C@@H]1O [2(G)(120), (2R, 3R, 4S, 5S)-2-(6-amino-9H-purin-9-yl)-5-{[(1-methyl-1H-imidazol-2-yl)thio)methyl}tetra-hydrofuran-3,4-diol]	3	1
CCCCCCCCCSC[C@H]1O[C@@H](n2cnc3c(N)ncnc32)[C@H](O)[C@@H]1O [2(G)(121), (2R, 3R, 4S, 5S)-2-(6-amino-9H-purin-9-yl)-5-[(nonylthio)methyl]tetra-hydrofuran-3,4-diol]	54.5	64.5
Nc1ncnc2c1ncn2[C@@H]1O[C@H](CSc2nc3ccccc3o2)[C@@H](O)[C@H]1O [2(G)(122), (2R, 3R, 4S, 5S)-2-(6-amino-9H-purin-9-yl)-5-[(1,3-benzoxazol-2-ylthio)-methyl]tetrahydrofuran-3,4-diol]	37	30.5
Nc1ncnc2c1ncn2[C@@H]1O[C@H](CSC[C@@H]2NC(=O)NC2=O)[C@@H](O)[C@H]1O [2(G)(123), (5R)-5-[({[(2S, 3S, 4R, 5R)-5-(6-amino-9H-purin-9-yl)-3,4-dihydroxytetra-hydrofuran-2-yl)methyl}thio)methyl]imidazo-lidine-2,4-dione]	22	23
Nc1ncnc2c1ncn2[C@@H]1O[C@H](CSCc2ccc(Cl)cc2)[C@@H](O)[C@H]1O [2(G)(124), (2R, 3R, 4S, 5S)-2-(6-amino-9H-purin-9-yl)-5-[{(4-chlorobenzyl)thio]-methyl}tetrahydrofuran-3,4-diol]	51	47
CCCCCCCSC[C@H]1O[C@@H](n2cnc3c(N)ncnc32)[C@H](O)[C@@H]1O [2(G)(125), (2R, 3R, 4S, 5S)-2-(6-amino-9H-purin-9-yl)-5-[(heptylthio)methyl]-tetrahydrofuran-3,4-diol]	62.5	101
CCCCCCSC[C@H]1O[C@@H](n2cnc3c(N)ncnc32)[C@H](O)[C@@H]1O [2(G)(126), (2R, 3R, 4S, 5S)-2-(6-amino-9H-purin-9-yl)-5-[(hexylthio)methyl]tetra-hydrofuran-3,4-diol]	67.5	72
Nc1ncnc2c1ncn2[C@@H]1O[C@H](CSCc2ccccc2F)[C@@H](O)[C@H]1O [2(G)(127), (2R, 3R, 4S, 5S)-2-(6-amino-9H-purin-9-yl)-5-{[(2-fluorobenzyl)-thio]methyl}tetrahydro-furan-3,4-diol]	58.5	56
Nc1ncnc2c1ncn2[C@@H]1O[C@H](CSc2ccc(Cl)c(Cl)c2)[C@@H](O)[C@H]1O [2(G)(128), (2R, 3R, 4S, 5S)-2-(6-amino-9H-purin-9-yl)-5{[(3,4-dichlorophenyl)-thio]methyl}tetrahydro-furan-3,4-diol]	10.5	11
CCCCCCCCCCSC[C@H]1O[C@@H](n2cnc3c(N)ncnc32)[C@H](O)[C@@H]1O [2(G)(129), (2R, 3R, 4S, 5S)-2-(6-amino-9H-purin-9-yl)-5-[(decylthio)methyl]tetra-hydrofuran-3,4-diol]	41.5	46
Nc1ncnc2c1ncn2[C@@H]1O[C@H](CSc2ccc(Cl)cc2Cl)[C@@H](O)[C@H]1O [2(G)(130), (2R, 3R, 4S, 5S)-2-(6-amino-9H-purin-9-yl)-5-{[(2,4-dichlorophenyl)-thio]methyl}tetrahydro-furan-3,4-diol]	4.5	−2
Nc1ncnc2c1ncn2[C@@H]1O[C@H](CSc2cc(Cl)cc(Cl)c2)[C@@H](O)[C@H]1O [2(G)(131), (2R, 3R, 4S, 5S)-2-(6-amino-9H-purin-9-yl)-5-{[(3,5-dichlorophenyl)-thio]methyl}tetrahydro-furan-3,4-diol]	11	11.5
CCOC(=O)c1c[nH]c(SC[C@H]2O[C@@H](n3cnc4c(N)ncnc43)[C@H](O)[C@@H]2O)n1 [2(G)(132), Ethyl 2-({[(2S, 3S, 4R, 5R)-5-(6-amino-9H-purin-9-yl)-3,4-dihydroxytetra-hydrofuran-2-yl]methyl}thio)-1H-imidazole-4-carboxylate]	1.5	0
CCCCOC(=O)CSC[C@H]1O[C@@H](n2cnc3c(N)ncnc32)[C@H](O)[C@@H]1O [2(G)(133), Butyl ({[(2S, 3S, 4R, 5R)-5-(6-amino-9H-purin-9-yl)-3,4-dihydroxytetra-hydrofuran-2-yl]methyl}-thio)acetate]	31.5	22.5
CCCCNCCSC[C@H]1O[C@@H](n2cnc3c(N)ncnc32)[C@H](O)[C@@H]1O [2(G)(136), (2R, 3R, 4S, 5S)-2-(6-amino-9H-purin-9-yl)-5-({[2-(butylamino)-ethyl]thio}methyl)-tetrahydrofuran-3,4-diol]	37.5	18
Cc1cc(C)c(CSC[C@H]2O[C@@H](n3cnc4c(N)ncnc43)[C@H](O)[C@@H]2O)c(C)c1 [2(G)(137), (2R, 3R, 4S, 5S)-2-(6-amino-9H-purin-9-yl)-5-{[(mesitylmethyl)thio]-methyl}tetrahydrofuran-3,4-diol]	2	3.5
Nc1ncnc2c1ncn2[C@@H]1O[C@H](CSc2nc(-c3ccccc3)cs2)[C@@H](O)[C@H]1O [2(G)(138), (2R, 3R, 4S, 5S)-2-(6-amino-9H-purin-9-yl)-5-{[(4-phenyl-1,3-thiazol-2-yl)thio]methyl}-tetrahydrofuran-3,4-diol]	12.5	9
CCCCOC(=O)CCSC[C@H]1O[C@@H](n2cnc3c(N)ncnc32)[C@H](O)[C@@H]1O [2(G)(139), Butyl 3-({[(2S, 3S, 4R, 5R)-5-(6-amino-9H-purin-9-yl)-dihydroxytetrahydro-furan-2-yl]methyl}thio)-propanoate]	30	26.5
CCOC(=O)C(C)SC[C@H]1O[C@@H](n2cnc3c(N)ncnc32)[C@H](O)[C@@H]1O (stereo partly drawn) [2(G)(140), Ethyl 2-({[(2S, 3S, 4R, 5R)-5-(6-amino-9H-purin-9-yl)-3,4-dihydroxytetra-hydrofuran-2-yl]methyl}-thio)-propanoate]	7.5	3
CC(O)CSC[C@H]1O[C@@H](n2cnc3c(N)ncnc32)[C@H](O)[C@@H]1O (stereo partly drawn) [2(G)(141), (2R, 3R, 4S, 5S)-2-(6-amino-9H-purin-9-yl)-5-{[(2-hydroxypropyl)-thio]methyl}tetrahydro-furan-3,4-diol]	27	10
CCCCCCCCSC[C@H]1O[C@@H](n2cnc3c(N)ncnc32)[C@H](O)[C@@H]1O [2(G)(142), (2R, 3R, 4S, 5S)-2-(6-amino-9H-purin-9-yl)-5-[(octylthio)methyl]tetra-hydrofuran-3,4-diol]	58	1.5
CC(O)C(C)SC[C@H]1O[C@@H](n2cnc3c(N)ncnc32)[C@H](O)[C@@H]1O (stereo partly drawn) [2(G)(144), (2R, 3R, 4S, 5S)-2-(6-amino-9H-purin-9-yl)-5-{[(2-hydroxy-1-methyl-propyl)thio]methyl}tetra-hydrofuran-3,4-diol]	7.5	18
Nc1ncnc2c1ncn2[C@@H]1O[C@H](CSCc2ccc(Cl)c(Cl)c2)[C@@H](O)[C@H]1O [2(G)(145), (2R, 3R, 4S, 5S)-2-(6-amino-9H-purin-9-yl)-5-{[(3,4-dichlorobenzyl)-thio]methyl}tetrahydro-furan-3,4-diol]	16	3.5
CC(C)c1ccccc1SC[C@H]1O[C@@H](n2cnc3c(N)ncnc32)[C@H](O)[C@@H]1O [2(G)(146), (2R, 3R, 4S, 5S)-2-(6-amino-9H-purin-9-yl)-5-{[(2-isopropylphenyl)-thio]methyl}tetrahydro-furan-3,4-diol]	2	28
